Measurements published in the supplement of paper PMC4862054.

Tests used:
Conditions in all cases: incubation time: 72 h
MDA-MB-468 [1] = assay: normalised response (% of control), CellTiter-Glo; higher = more viable cells (100 = DMSO, 0 = benzethonium chloride kill control)
Procedure: (§1)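 DSRT, 72 h incubation, CellTox Green / CellTiter-Glo readout. Signal is normalised to DMSO and benzethonium chloride controls. Value is the normalised response at the highest dose.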

MCF-10A [2] = assay: as above
Procedure: as §1

HCC1937 [3] = assay: as above
Procedure: as §1

BT-549 [4] = assay: as above
Procedure: as §1

CAL-85-1 [5] = assay: as above
Procedure: as §1

CAL-148 [6] = assay: as above
Procedure: as §1

MDA-MB-453 [7] = assay: as above
Procedure: as §1

SK-BR-3 = assay: as above
Procedure: as §1

HCC1599 [8] = assay: as above
Procedure: as §1

BT-474 [9] = assay: as above
Procedure: as §1

CAL-120 [10] = assay: as above
Procedure: as §1

DU-4475 [11] = assay: as above
Procedure: as §1

HCC1143 [12] = assay: as above
Procedure: as §1

MDA-MB-231 [13] = assay: as above
Procedure: as §1

HDQ-P1 [14] = assay: as above
Procedure: as §1

MFM-223 [15] = assay: as above
Procedure: as §1

CAL-51 [16] = assay: as above
Procedure: as §1

Hs578T [17] = assay: as above
Procedure: as §1

MDA-MB-436 [18] = assay: as above
Procedure: as §1

MDA-MB-468 [19] = assay: normalised response (% of control), CellTox Green; higher = less cell death (100 = DMSO, 0 = benzethonium chloride kill control)
Summary of the method: (§2)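 Breast cancer cell lines (20 µl suspension) were seeded into 384-well plates holding compound at 5 concentrations in 10-fold steps over a compound-specific 10,000-fold range, then incubated 72 h. CellTox Green fluorescence (485/520 nm) was read first, then CellTiter-Glo luminescence after 10 min at room temperature. Each plate was normalised to 0.1 % DMSO (100) and a positive kill control (0). Each value is the normalised signal at a single concentration of the series.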

MCF-10A [20] = assay: as above
Summary of the method: as §2

HCC1937 [21] = assay: as above
Summary of the method: as §2

BT-549 [22] = assay: as above
Summary of the method: as §2

CAL-85-1 [23] = assay: as above
Summary of the method: as §2

MDA-MB-453 [24] = assay: as above
Summary of the method: as §2

HCC1599 [25] = assay: as above
Summary of the method: as §2

BT-474 [26] = assay: as above
Summary of the method: as §2

CAL-120 [27] = assay: as above
Summary of the method: as §2

DU-4475 [28] = assay: as above
Summary of the method: as §2

HCC1143 [29] = assay: as above
Summary of the method: as §2

MDA-MB-231 [30] = assay: as above
Summary of the method: as §2

HDQ-P1 [31] = assay: as above
Summary of the method: as §2

MFM-223 [32] = assay: as above
Summary of the method: as §2

CAL-51 [33] = assay: as above
Summary of the method: as §2

Hs578T [34] = assay: as above
Summary of the method: as §2

MDA-MB-436 [35] = assay: as above
Summary of the method: as §2

CAL-148 [36] = assay: as above
Summary of the method: as §2

Row | Structure (SMILES) | normalised response (MDA-MB-468 [1]) [%] | normalised response (MCF-10A [2]) [%] | normalised response (HCC1937 [3]) [%] | normalised response (BT-549 [4]) [%] | normalised response (CAL-85-1 [5]) [%] | normalised response (CAL-148 [6]) [%] | normalised response (MDA-MB-453 [7]) [%] | normalised response (SK-BR-3) [%] | normalised response (HCC1599 [8]) [%] | normalised response (BT-474 [9]) [%] | normalised response (CAL-120 [10]) [%] | normalised response (DU-4475 [11]) [%] | normalised response (HCC1143 [12]) [%] | normalised response (MDA-MB-231 [13]) [%] | normalised response (HDQ-P1 [14]) [%] | normalised response (MFM-223 [15]) [%] | normalised response (CAL-51 [16]) [%] | normalised response (Hs578T [17]) [%] | normalised response (MDA-MB-436 [18]) [%] | normalised response (MDA-MB-468 [19]) [%] | normalised response (MCF-10A [20]) [%] | normalised response (HCC1937 [21]) [%] | normalised response (BT-549 [22]) [%] | normalised response (CAL-85-1 [23]) [%] | normalised response (MDA-MB-453 [24]) [%] | normalised response (HCC1599 [25]) [%] | normalised response (BT-474 [26]) [%] | normalised response (CAL-120 [27]) [%] | normalised response (DU-4475 [28]) [%] | normalised response (HCC1143 [29]) [%] | normalised response (MDA-MB-231 [30]) [%] | normalised response (HDQ-P1 [31]) [%] | normalised response (MFM-223 [32]) [%] | normalised response (CAL-51 [33]) [%] | normalised response (Hs578T [34]) [%] | normalised response (MDA-MB-436 [35]) [%] | normalised response (CAL-148 [36]) [%]
1 | Cc1c(C(=O)Nc2ccc(N3C[C@@H](C)O[C@@H](C)C3)nc2)cccc1-c1ccc(OC(F)(F)F)cc1 [Erismodegib] (10000 nM) | 74.7 | 92 | 90.2 | 81.8 | 91.8 | 100 | 75.5 | 81 | 91.1 | 73.5 | 97.6 | 99.6 | 89.4 | 79 | 85.3 | 80.8 | 102 | 94.8 | 78.6 | 171 | 101 | 122 | 130 | 85.3 | 63.9 | 118 | 93 | 101 | 108 | 109 | 107 | 111 | 105 | 99.8 | 80.5 | 79 | –
2 | COc1cc(Nc2ncc(F)c(Nc3ccc4c(n3)N(COP(=O)(O)O)C(=O)C(C)(C)O4)n2)cc(OC)c1OC [Fostamatinib] (2500 nM) | 64.4 | 15.1 | 54 | 39.7 | 30.5 | 106 | 64.8 | 60.3 | 66.8 | 27 | 43.7 | 65.1 | 63.2 | 20.3 | 26.1 | 37.8 | 50.8 | 15.1 | 67.5 | 37.4 | 69 | 74.1 | 64.8 | -13.8 | 89.1 | 92.7 | 77.7 | 67.8 | 90.3 | 100 | -11.9 | 73.6 | 87.5 | 31.6 | 19.2 | 86.6 | 67.6
3 | CC(C)NC[C@@H](C(=O)N1CCN(c2ncnc3c2[C@H](C)C[C@H]3O)CC1)c1ccc(Cl)cc1 [GDC-0068] (10000 nM) | 43.4 | 58.9 | 61.5 | 55.3 | 66.1 | 3.54 | 29.6 | 44.3 | 82.5 | 86.6 | 70.3 | 75.2 | 55.8 | 89.5 | 58.3 | 23.3 | 36.8 | 65.1 | 77.5 | 46.7 | 101 | 97.5 | 76.8 | 100 | 90.9 | 95.9 | 95.7 | 104 | 96.6 | 110 | 124 | 67.2 | 74.7 | 77.1 | 119 | 96 | 29.8
4 | CCCc1cc(C)[nH]c(=O)c1CNC(=O)c1cc(-c2ccnc(N3CCN(C)CC3)c2)cc2c1cnn2C(C)C [GSK343] (10000 nM) | 11.1 | 97.5 | 100 | 77.1 | 30.2 | 62.8 | 13.7 | 11.3 | 22.8 | 11.3 | 79.4 | 77.8 | 68.9 | 7.92 | 66.7 | 41.8 | 120 | 74.4 | 53.9 | 114 | 90.1 | 101 | 97.6 | 56.8 | -8.4 | 73.6 | 4.03 | 78.5 | 92.7 | 68.4 | -68.4 | 80 | 77.3 | 106 | 79.2 | 95.2 | 85.5
